{"source": "the METLIN SMRT retention time set (Domingo-Almenara et al. 2019)", "assay": "gradient 5% acetonitrile 3 min, to 50% in 2 min, to 85% in 15 min, held 3 min, 100 µL/min", "settings": "column: Zorbax Extend-C18 2.1 x 50 mm; eluents: water / acetonitrile, 0.1% formic acid", "in_short": "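Data were gathered over 3 months by HPLC coupled to a quadrupole time-of-flight mass spectrometer, operated in positive and negative ionization mode. Mixtures of ~100 pure standards ran on a Zorbax Extend-C18 column (2.1 × 50 mm, 1.8 μm) at 100 μL/min, with water and acetonitrile each containing 0.1% formic acid and dead and dwell volumes of 40 μL and 900 μL. Retention time was read from adduct peaks picked by computer and checked manually.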", "data": [{"smiles": "CCCn1c(=O)c2cc(C(=O)NCc3ccc(N4CCOCC4)cc3)nn2c2ccccc21", "values": [{"measurement": "RP-LC retention time", "value": 842, "unit": "s"}]}, {"smiles": "CCc1nnc2nc(N3CCN(C(=O)Cc4cc(OC)cc(OC)c4)CC3)cc(C)n12", "values": [{"measurement": "RP-LC retention time", "value": 623, "unit": "s"}]}, {"smiles": "CC(NC(=O)c1ccc(N(C)C)cc1)C(=O)N1CCCc2ccccc21", "note": "(stereo unspecified)", "values": [{"measurement": "RP-LC retention time", "value": 846, "unit": "s"}]}, {"smiles": "C[C@H](NC(=O)[C@H](Cc1ccccc1)NC(=O)OCc1ccccc1)C(=O)CF", "values": [{"measurement": "RP-LC retention time", "value": 824, "unit": "s"}]}, {"smiles": "O=C(CSc1nnc(C2COc3ccccc3O2)o1)NCc1ccco1", "note": "(stereo unspecified)", "values": [{"measurement": "RP-LC retention time", "value": 648, "unit": "s"}]}, {"smiles": "COc1ccc(-c2cc(N3CCN(C(=O)COc4ccc(Cl)cc4)CC3)ncn2)cc1", "values": [{"measurement": "RP-LC retention time", "value": 738, "unit": "s"}]}, {"smiles": "CSC[C@H]1O[C@@H](n2cnc3c(N)ncnc32)[C@@H](O)[C@H]1O", "values": [{"measurement": "RP-LC retention time", "value": 575, "unit": "s"}]}, {"smiles": "O=C(C1CN(S(=O)(=O)c2ccccc2)CC12CCCCC2)N1CCOCC1", "note": "(stereo unspecified)", "values": [{"measurement": "RP-LC retention time", "value": 840, "unit": "s"}]}, {"smiles": "N#Cc1ccsc1NC(=O)c1cccc(Oc2ccccc2)c1", "values": [{"measurement": "RP-LC retention time", "value": 988, "unit": "s"}]}, {"smiles": "O=c1c2sccc2n(Cc2nc(-c3ccc(C(F)(F)F)cc3)no2)c(=O)n1-c1ccc(F)cc1", "values": [{"measurement": "RP-LC retention time", "value": 1080, "unit": "s"}]}, {"smiles": "Cc1ccc(-c2nnc(-c3cccc(S(=O)(=O)NCc4cccnc4)c3)o2)cc1", "values": [{"measurement": "RP-LC retention time", "value": 696, "unit": "s"}]}, {"smiles": "Cc1ccc(CNC(=O)C2(C)CCN(S(=O)(=O)c3ccccc3Cl)CC2)cc1", "values": [{"measurement": "RP-LC retention time", "value": 998, "unit": "s"}]}, {"smiles": "CCCNC(=O)N1CCCN(C2=NS(=O)(=O)C(c3cccc(Cl)c3)=C2C)CC1", "values": [{"measurement": "RP-LC retention time", "value": 775, "unit": "s"}]}, {"smiles": "O=C(Nc1ccc(Cl)cc1)c1oc2ccccc2c1NC(=O)C1CC1", "values": [{"measurement": "RP-LC retention time", "value": 1080, "unit": "s"}]}, {"smiles": "O=C1NC2(CCN(C(=O)c3ccccc3F)CC2)N=C1c1ccc(Cl)cc1", "values": [{"measurement": "RP-LC retention time", "value": 871, "unit": "s"}]}, {"smiles": "COc1ccc(Cl)cc1NC(=O)Cn1c(C)nc(-c2ccccn2)cc1=O", "values": [{"measurement": "RP-LC retention time", "value": 727, "unit": "s"}]}, {"smiles": "Cc1ccccc1Nc1c(-c2cccc(Cl)c2)nc2ccc(Cl)cn12", "values": [{"measurement": "RP-LC retention time", "value": 1080, "unit": "s"}]}, {"smiles": "Cc1cc2nn(CC(=O)N3CCC(C)CC3)c(=O)n2c(-c2ccc(Cl)cc2)n1", "values": [{"measurement": "RP-LC retention time", "value": 867, "unit": "s"}]}, {"smiles": "COc1ccc2c(c1)C1(CCN(C(=O)CCc3ccccc3)C1)C(=O)N2", "note": "(stereo unspecified)", "values": [{"measurement": "RP-LC retention time", "value": 728, "unit": "s"}]}, {"smiles": "Cc1cc(C)cc(Oc2nccn3c(=O)n(CC(=O)Nc4cc(Cl)ccc4C)nc23)c1", "values": [{"measurement": "RP-LC retention time", "value": 1050, "unit": "s"}]}, {"smiles": "NS(=O)(=O)c1ccc(CNC(=O)C2CN(C(=O)c3ccc(F)c(F)c3)C2)cc1", "values": [{"measurement": "RP-LC retention time", "value": 631, "unit": "s"}]}, {"smiles": "O=C(c1cccs1)N1CCCC(c2nn[nH]n2)C1", "note": "(stereo unspecified)", "values": [{"measurement": "RP-LC retention time", "value": 627, "unit": "s"}]}, {"smiles": "Cn1cccc1C(=O)C(=O)N1CCN(Cc2ccc3c(c2)OCO3)CC1", "values": [{"measurement": "RP-LC retention time", "value": 596, "unit": "s"}]}, {"smiles": "Cc1ccc(-c2noc(Cn3c(=O)n(CC4CCCO4)c(=O)c4ccccc43)n2)cc1", "note": "(stereo unspecified)", "values": [{"measurement": "RP-LC retention time", "value": 1040, "unit": "s"}]}, {"smiles": "COc1ccc(Cl)cc1NC(=O)C1CCCN(c2ncnc3c2nc2n3CCCCC2)C1", "note": "(stereo unspecified)", "values": [{"measurement": "RP-LC retention time", "value": 934, "unit": "s"}]}, {"smiles": "O=C(NCc1ccco1)C1c2ccccc2C(=O)N(Cc2ccccc2)C12CCCC2", "note": "(stereo unspecified)", "values": [{"measurement": "RP-LC retention time", "value": 943, "unit": "s"}]}, {"smiles": "Cc1ccc(-c2nnc(-c3cccc(S(=O)(=O)N(C)C)c3)o2)cc1", "values": [{"measurement": "RP-LC retention time", "value": 986, "unit": "s"}]}, {"smiles": "COCC1CN(C)CC12CCN(S(=O)(=O)c1ccc(F)c(C)c1)CC2", "note": "(stereo unspecified)", "values": [{"measurement": "RP-LC retention time", "value": 659, "unit": "s"}]}, {"smiles": "Cc1cccc(-c2nnc(C)c(N3CCCCC3C)n2)c1", "note": "(stereo unspecified)", "values": [{"measurement": "RP-LC retention time", "value": 765, "unit": "s"}]}, {"smiles": "Cc1cc2nnc(SCC(=O)c3cc(C)n(CC4CCCO4)c3C)n2c2ccccc12", "note": "(stereo unspecified)", "values": [{"measurement": "RP-LC retention time", "value": 784, "unit": "s"}]}, {"smiles": "CC(C)CC(=O)N1CC(F)(F)C[C@H]1c1nnc(-c2cnccn2)o1", "values": [{"measurement": "RP-LC retention time", "value": 703, "unit": "s"}]}, {"smiles": "O=C(Nc1ccccc1Br)N1CCc2nc(-c3ccc(Cl)cc3)ncc2C1", "values": [{"measurement": "RP-LC retention time", "value": 1130, "unit": "s"}]}, {"smiles": "COc1cc2c(cc1CNC(=O)Cn1cc(C(=O)c3ccco3)c3ccccc31)OCCCO2", "values": [{"measurement": "RP-LC retention time", "value": 902, "unit": "s"}]}, {"smiles": "COc1ccc(C(=O)NC2(c3nc(C)no3)CCCCC2)c(C)c1", "values": [{"measurement": "RP-LC retention time", "value": 855, "unit": "s"}]}, {"smiles": "O=C(Nc1ccc(F)c(Cl)c1)C1CCN(C(=O)NCc2cccs2)CC1", "values": [{"measurement": "RP-LC retention time", "value": 764, "unit": "s"}]}, {"smiles": "CCn1c(C)c(-c2nc(C3CC3)no2)c(S(=O)(=O)NC2CCCC2)c1C", "values": [{"measurement": "RP-LC retention time", "value": 1060, "unit": "s"}]}, {"smiles": "CCCN1CCN(c2ncc3c(n2)CCN(Cc2cccc(OC)c2)C3)CC1", "values": [{"measurement": "RP-LC retention time", "value": 1120, "unit": "s"}]}, {"smiles": "CCCc1noc(-c2ccc(-n3cnc(C(=O)NC4CCCCC4)c3)nc2)n1", "values": [{"measurement": "RP-LC retention time", "value": 741, "unit": "s"}]}, {"smiles": "Cn1nc(-c2nnc(-c3ccc(F)cc3)o2)c2c1CCN(S(=O)(=O)Cc1ccccc1)C2", "values": [{"measurement": "RP-LC retention time", "value": 999, "unit": "s"}]}, {"smiles": "O=C(Nc1nnc(-c2ccc(C(F)(F)F)cc2)o1)C1CC1", "values": [{"measurement": "RP-LC retention time", "value": 714, "unit": "s"}]}, {"smiles": "O=C(Nc1nccs1)c1cc2cc([N+](=O)[O-])ccc2s1", "values": [{"measurement": "RP-LC retention time", "value": 821, "unit": "s"}]}, {"smiles": "CN1CC(=O)N(CC(=O)Nc2cccc(C#N)c2)c2ccccc2C1=O", "values": [{"measurement": "RP-LC retention time", "value": 653, "unit": "s"}]}, {"smiles": "COC(=O)c1c(C)[nH]c(C(=O)N2CCC(CC(=O)N3CCN(c4ccccn4)CC3)CC2)c1C", "values": [{"measurement": "RP-LC retention time", "value": 606, "unit": "s"}]}, {"smiles": "CCCNC(=O)C1CCCN(c2ccc(SCC(=O)Nc3ccc4c(c3)OCCO4)nn2)C1", "note": "(stereo unspecified)", "values": [{"measurement": "RP-LC retention time", "value": 657, "unit": "s"}]}, {"smiles": "O=S(=O)(c1ccc(-c2noc(-c3ccc(F)cc3)n2)cc1)N1CCOCC1", "values": [{"measurement": "RP-LC retention time", "value": 1050, "unit": "s"}]}, {"smiles": "O=C(NCc1ccccc1F)C1CCN(C(=O)c2ncn3c2COC(c2ccccc2)C3)CC1", "note": "(stereo unspecified)", "values": [{"measurement": "RP-LC retention time", "value": 747, "unit": "s"}]}, {"smiles": "Cc1cc(F)ccc1N1C(=O)CN(S(C)(=O)=O)CC1(C)C(=O)NC1CCCCCCC1", "note": "(stereo unspecified)", "values": [{"measurement": "RP-LC retention time", "value": 1070, "unit": "s"}]}, {"smiles": "O=C(NCc1cccc(Cl)c1)C1CCN(c2cnc3nccnc3c2)CC1", "values": [{"measurement": "RP-LC retention time", "value": 697, "unit": "s"}]}, {"smiles": "COc1ccc(Cl)cc1NC(=O)NCCc1ccc(N(C)C)cc1", "values": [{"measurement": "RP-LC retention time", "value": 637, "unit": "s"}]}, {"smiles": "COc1ccc(C2(C(=O)N3CCCC(CN4CCOCC4)CC3)CC2)cc1", "note": "(stereo unspecified)", "values": [{"measurement": "RP-LC retention time", "value": 596, "unit": "s"}]}, {"smiles": "COc1cccc(S(=O)(=O)N2CCCC(c3nn[nH]n3)C2)c1", "note": "(stereo unspecified)", "values": [{"measurement": "RP-LC retention time", "value": 717, "unit": "s"}]}, {"smiles": "CCOc1ccc(NC(=O)Cc2csc3nc(-c4ccc(C)c(C)c4)cn23)cc1", "values": [{"measurement": "RP-LC retention time", "value": 903, "unit": "s"}]}, {"smiles": "O=S(=O)(c1ccc(Br)cc1)N1CCc2nc[nH]c2C1", "values": [{"measurement": "RP-LC retention time", "value": 615, "unit": "s"}]}, {"smiles": "CCCN1CCn2cc(S(=O)(=O)Nc3cc(OC)cc(OC)c3)cc2C1=O", "values": [{"measurement": "RP-LC retention time", "value": 744, "unit": "s"}]}, {"smiles": "Cc1ccc(N2CC(c3noc(-c4cccc(OC(F)(F)F)c4)n3)CC2=O)cc1", "note": "(stereo unspecified)", "values": [{"measurement": "RP-LC retention time", "value": 1160, "unit": "s"}]}, {"smiles": "O[C@@H]1C[C@@H](c2nnc3n2CCN(Cc2ccccc2)C3)N(Cc2cccnc2)C1", "values": [{"measurement": "RP-LC retention time", "value": 563, "unit": "s"}]}, {"smiles": "CCOCC(=O)N1CCc2nc(N3CCN(C)CC3)sc2C1", "values": [{"measurement": "RP-LC retention time", "value": 557, "unit": "s"}]}, {"smiles": "COCCC1CCN(C(=O)COc2cccc(Cl)c2)CC1", "values": [{"measurement": "RP-LC retention time", "value": 855, "unit": "s"}]}, {"smiles": "c1ccc2c(c1)CCN(Cc1nc(-c3ccc(N4CCCCCC4)nc3)no1)C2", "values": [{"measurement": "RP-LC retention time", "value": 816, "unit": "s"}]}, {"smiles": "Cc1cnn(Cc2nc(-c3ccc(NC(=O)c4ccco4)cc3)oc2C)c1", "values": [{"measurement": "RP-LC retention time", "value": 806, "unit": "s"}]}, {"smiles": "O=C(c1ccc(Cn2cncn2)cc1)N1CCN(c2ccc(F)cc2)CC1", "values": [{"measurement": "RP-LC retention time", "value": 700, "unit": "s"}]}, {"smiles": "CCOC(=O)N1CCN(C(=O)Cn2ccc3ccccc32)CC1", "values": [{"measurement": "RP-LC retention time", "value": 731, "unit": "s"}]}, {"smiles": "CCOc1ccc(NC(=O)N2CCCC2c2nc(-c3ccc(OC)cc3)no2)cc1", "note": "(stereo unspecified)", "values": [{"measurement": "RP-LC retention time", "value": 940, "unit": "s"}]}, {"smiles": "CCN1CCN(c2c(S(=O)(=O)c3ccc(OC)cc3)cnc3cc(OC)c(OC)cc23)CC1", "values": [{"measurement": "RP-LC retention time", "value": 628, "unit": "s"}]}, {"smiles": "CCCNC(=O)C1CCCN(c2ccc(SCC(=O)Nc3ccccc3C)nn2)C1", "note": "(stereo unspecified)", "values": [{"measurement": "RP-LC retention time", "value": 655, "unit": "s"}]}, {"smiles": "OC[C@H]1OC(n2cnc3c(N[C@H]4CCC[C@@H]4O)ncnc32)[C@H](O)[C@@H]1O", "note": "(stereo partly specified)", "values": [{"measurement": "RP-LC retention time", "value": 551, "unit": "s"}]}]}
